Data published in publication PMC12049818, “Identification of NUV-244 as a PNPLA3 I148M degrading small molecule” (iScience, 2025).
Residue numbers refer to the chain shown, from its start.

Legend:
[1] = biological target: T1, PNPLA3 I148M (Homo sapiens, UniProt Q9NST1, I148M); assay: Huh7 untagged PNPLA3 I148M immunofluorescence on lipid droplets; format: cell-based; set-up: host or cells: Huh7; conditions: anti-PNPLA3 IF; representative curve, Figure 3E
T1 sequence (Q9NST1 1-481 I148M): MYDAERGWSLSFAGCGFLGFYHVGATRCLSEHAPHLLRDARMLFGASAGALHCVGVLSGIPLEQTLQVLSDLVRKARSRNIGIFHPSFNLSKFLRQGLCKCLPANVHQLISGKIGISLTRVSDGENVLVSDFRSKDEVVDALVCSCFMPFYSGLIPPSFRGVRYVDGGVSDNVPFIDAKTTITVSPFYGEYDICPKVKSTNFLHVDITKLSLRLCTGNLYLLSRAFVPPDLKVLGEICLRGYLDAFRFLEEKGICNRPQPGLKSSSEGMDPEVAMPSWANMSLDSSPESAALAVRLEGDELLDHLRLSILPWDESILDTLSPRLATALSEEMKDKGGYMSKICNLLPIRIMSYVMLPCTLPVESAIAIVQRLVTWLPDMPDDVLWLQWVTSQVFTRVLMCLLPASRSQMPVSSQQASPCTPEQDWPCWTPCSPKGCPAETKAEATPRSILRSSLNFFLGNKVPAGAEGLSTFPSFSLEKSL
Procedure: Even though C-terminal tagging is reported not to interfere with PNPLA3 localization,[20] we established an assay to exclude the possibility that C-terminal tagging of PNPLA3 with tagRFP could alter PNPLA3 response to NUV-244 on lipid droplets. For this we generated Huh7 cell lines that express untagged variants of PNPLA3 I148M or PNPLA3 WT and visualized PNPLA3 on lipid droplets by immunofluorescence (Figures 3C, 3D, and S3A).
Cells were fixed with 4% paraformaldehyde for 15 minutes at room temperature. Cells were blocked with 0.2 M glycine, 0.1 mg/mL saponin, and 30 mg/mL bovine serum albumin (BSA) (all Sigma Aldrich) in PBS for 1 hour. Cells were washed 1x with washing buffer (0,1 mg/ml saponin + 1 mg/ml Bovine serum albumin) using a Blue Washer (Blue Cat Bio). Mouse anti-human ADPN (PNPLA3, C-8, #sc-390252, Santa Cruz) and rabbit anti-human PNPLA2 (Sigma Aldrich, #HPA055173-25UL) primary antibodies and appropriate secondary antibodies conjugated with Alexa-Fluor 647 (Jackson ImmunoResearch) were used. […]
Images were acquired by an Opera Phenix confocal spinning disc microscope system (Revvity, Waltham, MA, USA) with a 20x or 40x water objective at 405 nm (Hoechst), 488 nm (BODIPY) and 647 nm. Quantification was carried out with the Harmony (Revvity, Waltham, MA, USA) or MetaXpress software (Molecular Devices). […]

[2] = biological target: T1, PNPLA3 I148M; assay: nanoDSF thermal shift, PNPLA3 I148M protein; format: binding; conditions: ligand 25 μM
Excerpt: (§1) To investigate the mode of action of NUV-244, we evaluated its direct binding to the PNPLA3 I148M protein using nano differential scanning fluorimetry (nanoDSF). In this assay, compounds that bind to a target protein can lead to thermal stabilization, preventing protein denaturation, which is reflected in a shift of the protein melting curve.
(§2) Full-length wild-type PNPLA3 (Q9NST1), mutant PNPLA3 (I148M), and PNPLA2 (Q96AD5) were cloned into the pVL1393 vector with an N-terminal Flag-Tag. Proteins were expressed in SF9 cells infected at a multiplicity of infection (MOI) of 1 for 72 hours. Protein purification was performed using a two-step process. The first step involved affinity purification using M2 anti-Flag agarose beads. This was followed by gel filtration chromatography using a Superdex 200 column. Thermal melting experiments were carried out using a Prometheus NT.48 instrument (NanoTemper Technologies). Proteins were prepared in 20 mM Tris-HCl pH 7.4, 100 mM NaCl, 5 % Glycerol, 2 mM DTT and 0.2 mg/mL was used as a final concentration in 50 μL volume. For binding experiments, ligands were added to the mixture at a final concentration of 25 μM, DMSO was used as control. […] The intrinsic protein fluorescence at 330 and 350 nm was recorded. Data were analysed using Prometheus NT.48 software. Thermal shifts (ΔTm) were calculated, and Z-scores greater than 6 indicated robust stabilization. […]

[3] = biological target: T2, PNPLA3 WT (Homo sapiens, UniProt Q9NST1); assay: nanoDSF thermal shift, PNPLA3 WT protein; format: binding; conditions: ligand 25 μM
T2 construct: Full-length wild-type PNPLA3 (Q9NST1), mutant PNPLA3 (I148M), and PNPLA2 (Q96AD5) were cloned into the pVL1393 vector; Flag (N); made in house; host or cells: SF9 insect cells (baculovirus, pVL1393)
T2 sequence (Q9NST1 1-481): T1 sequence (Q9NST1 1-481 I148M) with M148I
Excerpt: as §1, §2

- EC50 [1]: 153 nM
- ΔTm PNPLA3 I148M [2]: 5.82 °C
- ΔTm PNPLA3 WT [3]: 7.02 °C
Structure (SMILES): Cc1cccc(Cc2nc(C)c(C(=O)Nc3cc(O)ccc3Cl)s2)c1 [NUV-244]
